Results reported in patent US20080187492A1, “Drosophila Models For Diseases Affecting Learning and Memory” (priority 2004, published 2008).

Key:
[1] = test system: FS (dFMR1-3+frame shifted rescue fragment) flies; experiment: Conditioned courtship: short-term memory at 60 minutes, virgin female target, FS flies; assay type: in vivo, Drosophila melanogaster; settings: for short-term memory: concentration not given; for short term memory: LY341495 (400 nM), MPEP (20 μg/ml); for short-term memory at 60 minutes after training: adulthood alone or both
Protocol: Short-term memory. The model was further extended to encompass short-term memory at 60 minutes after training. After the one hour training session with a previously mated female, the female is removed and the male is placed in a holding chamber for 60 minutes, then subsequently placed in a testing chamber with a virgin female target to assess short-term memory (FIG. 4C). […] CT-CT FS flies court just as vigorously at 60 minutes after training as naive CT-CT FS flies. […] The FS groups that were treated with MPEP in development alone, adulthood alone or in both development and adulthood display experience dependent reduction of courtship activity at 60 minutes after training when compared to group matched naives M-M FS, p<0.0001, CT-M FS, p<0.0001 and M-CT FS, p<0.0001. […] Additionally, flies were tested for ability to discriminate between virgin and previously mated females (FIG. 4D).
In order to examine short-term memory at 60 minutes after training, after the one hour training session with a previously mated female, the female is removed and the male is placed in a holding chamber for 60 minutes, then subsequently placed in a testing chamber with a virgin female (FIG. 9B). […] CT-CT FS flies court just as vigorously at 60 minutes after training as naive CT-CT FS flies. […] The FS groups that were treated with MPEP in development alone, adulthood alone or in both development and adulthood display experience dependent reduction of courtship activity at 60 minutes after training when compared to group matched naives M-M FS.

[2] = test system: Rescue flies; experiment: Short-term memory (60 mins) with mated female targets, Rescue flies; assay type: in vivo, Drosophila melanogaster; settings: for short-term memory, mated female target: 86 μM MPEP, 400 nM LY341495, 573 μM MPPG, 348 μM MTPG; for memory at 60 minutes post training, mated female target: 5 day old, 8.6 mM MPEP, 400 nM LY341495
Protocol: Effects of drug treatment on short-term memory (60 mins) in flies lacking dfmr1 activity with mated female targets. Short-term (60 min.) memory was measured in Rescue and FS flies that were either fed control food or underwent various drug treatments as described below. Short-term memory was measured by placing a trained male in a holding chamber for 60 minutes (after being trained for one hour with a previously mated female), then subsequently placing him in a testing chamber with a mated female target for a ten-minute courtship interval (C.I.). This C.I. was compared to the C.I. obtained for naïve courtship of a previously mated female, i.e., C.I. during the first 10 minutes of the training session with a previously mated female. Additionally, for reference the C.I. during the last 10 minutes of the training period was also determined. Numbers of flies are indicated above each bar for all groups. The levels of significance are indicated as follows; *=p<0.05; **=p<0.005; ***=p<0.0001.
Restoration of short-term memory with mGluR antagonists. To establish that the failure to observe memory was not due to a problem with recognizing or processing the appropriate cues from the virgin female target, we used a modified version of the conditioned courtship paradigm where the male is paired with a mated female target subsequent to training (Kane et al., 1997; Joiner and Griffith, 1997; Joiner and Griffith, 1999; Kamashev et al., 1999). Again, with pharmacologic treatment it is necessary to utilize more then one compound to confirm the specificity of the target, so in this case we used four mGluR antagonists. […] It is also important to note that the robust deficit in synaptic plasticity in FS flies, with regard to memory, is a critical extension of the previous models of Fragile X syndrome in model organisms, since this is one of the most prominent aspects of the human disorder. Furthermore, we have shown that antagonism of the mGluRs can restore synaptic plasticity in the Drosophila model of Fragile X syndrome.

Compound | short-term memory ([1]; 20-day-old) | short-term memory, mated female target [2] | memory at 60 minutes post training, mated female target [2] | short term memory ([1]; 5 day old) | short-term memory at 60 minutes after training ([1]; 20-day-old, MPEP in development alone) | short-term memory at 60 minutes after training ([1]; 5 day old, MPEP 200 μg/ml in development alone, p<0.0001)
CC(N)(C(=O)O)c1ccc(-c2nnn[nH]2)cc1 (racemic) [MTPG, (RS)-α-methyl-4-tetrazolylphenylglycine] | rescue short-term memory | demonstrated intact short-term memory | demonstrate memory at 60 minutes post training |  |  | 
N[C@](CC1c2ccccc2Oc2ccccc21)(C(=O)O)[C@H]1C[C@@H]1C(=O)O [LY341495, (2S)-2-amino-2-[(1S,2S)-2-carboxycycloprop-1-yl]-3-(xanth-9-yl) propionic acid] | rescue short-term memory | demonstrated intact short-term memory | demonstrate memory at 60 minutes post training | restored short-term memory |  | 
Cc1cccc(C#Cc2ccccc2)n1 [MPEP, 2-methyl-6-(phenylethynyl)pyridine] |  | demonstrated intact short-term memory | demonstrate memory at 60 minutes post training | restored short-term memory | short-term memory is also rescued | short-term memory is also rescued
